Measurements published in patent US8247444B2, “Anti-tumor effect of dimeric phthalide compound” (priority 2007, dated 2012).
In brackets after ≈: the same amount, converted by molar mass.

Assays:
[1] = tested on: SMMC-7721/Adr; assay: Growth inhibition of sensitive and drug-resistant cell lines (IC50), SMMC-7721/Adr; assay type: cell-based; settings: Homo sapiens; SMMC-7721/Adr drug-resistant cells
Description: (§1) HL-60/ADR, MCF-7/ADR, K562/ADR, Bel-7402/5-FU, KBV200, SMMC-7721/Adr were respectively chemotherapeutics Adriamycin (ADR), 5-Fluorouracil (5-FU) or vincristine (VCR) drug-resistant sub-stains of HL-60, MCF-7, K562, Bel-7402, KB, SMMC-7721 cells (all from Chinese Academy of Medical Sciences). NB4-R2 was all trans-retinoic acid (ATRA) drug-resistant sub-stain (from Pathophysiology Research Department of Shanghai JiaoTong University). The main drug-resistance mechanism of K562/ADR was high expression of P-glycoprotein (P-gp), along with increased expression of Bcl-2. In addition to high expression of P-gp, the drug-resistance mechanism of MCF-7/ADR also related to the high expression of Breast Cancer Resistant Protein (BCRP). The main drug-resistance mechanism of HL-60/ADR was high expression of Multidrug Resistance Protein 1 (MRP1), along with high expression of Bcl-2, Bcl-xL. […] The main drug-resistance mechanism of KBV200 was high expression of P-gp and its increased activity. The drug-resistance mechanism of NB4-R2 on ATRA was mutation in the RAR gene locus.
(§2) The human lung cancer cell H1299 and H446, glioma cell U251 and U87MG, and human hepatic cellular cancer Bel-7402 cell in logarithmic growth phase were digested with pancreatic enzyme, and then suspended into DMEM or RPMI1640 containing 10% fetal bovine serum. The leukemic cells Kasumi-1 need no digestion, and were suspended into RPMI1640 containing 10% fetal bovine serum directly after centrifugalization. The cell density was adjusted to 1×10^4 cells/ml through cell counting, and the cell suspensions were seeded into a 96-well plate respectively, 100 μl/well, totally 6 groups of cells. The adherent cells were cultured overnight, the suspended cells were added different concentration gradients of dimeric phthalide compounds (S1-S6) directly, n=6 for each concentration of a single agent. The final volume was 200 ul, and the balance was supplemented with the culture medium. The plate was then incubated for 68 hours in 37° C., saturated humidity, 5% CO2 cell incubator. The medium was aspirated and 72 μl/well fresh culture medium was added. 8 μl […] (CCK-8) was added into each well and cultured for 2 hours. The absorbance was measured at 450 nm. The results were calculated as the 50% inhibiting drug concentration, i.e. IC50, using Sigmoidal simulation function by software Origin 7.0.
(§3) The cancer cells (various cell lines as shown in table 1 or FIG. 3) were seeded 1×10^3 cells per well into a 96-well plate. The suspended cells were added different concentration of dimeric phthalide compounds (S1-S6) directly, and the adherent cells were cultured overnight and added different concentration of dimeric phthalide compounds (S1-S6). The different concentration of dimeric phthalide compounds were divided into 10 groups: 0, 0.1, 0.5, 1, 5, 10, 20, 40, 80, 160 μg/ml, n=6 for each concentration.
(§4) According to the method described in Example 2, […] was detected and IC50 was calculated. The experiment was repeated for 3 times.
(§5) The growth inhibition effects of dimers of S1-S6 on its sensitive cell lines as well as the drug-resistant sub-strains (IC50 (μg/ml)) were shown in table 1 and FIG. 3.

[2] = tested on: K562; assay: Growth inhibition of sensitive and drug-resistant cell lines (IC50), K562; assay type: cell-based; settings: Homo sapiens; K562 cells
Protocol: as §2, §3, §4, §5

[3] = tested on: Bel-7402; assay: Growth inhibition of sensitive and drug-resistant cell lines (IC50), Bel-7402; assay type: cell-based; settings: Homo sapiens; Bel-7402 cells, Table 1
Protocol: (§6) In the following Examples, the cell lines used were H1299, H446 (human lung cancer cell line), KB (human oral cavity carcinoma cell line), NB4, HL-60 (human leukemic cell line), U251 ? U87MG (human glioblastoma cell line), MCF-7 (human breast carcinoma cell line), Bel-7402 and SMMC7721 (human hepatic cellular cancer cell line), SW620 (human colon carcinoma cell line), HDF (human dermis fibroblast), HUVEC (human umbilical vein endothelial cell line) and Kasumi-1 (human acute myeloid leukaemia cell line), all from American Type Culture Collection (ATCC).
as §2, §3, §4, §5

[4] = tested on: K562/Adr; assay: Growth inhibition of sensitive and drug-resistant cell lines (IC50), K562/Adr; assay type: cell-based; settings: Homo sapiens; K562/Adr drug-resistant cells
Description: as §1, §2, §3, §4, §5

[5] = tested on: HDF; assay: Vascular endothelial cell inhibition assay (CCK-8), HDF; assay type: cell-based; settings: Homo sapiens, 72 h
Protocol: (§7) 2×10^3 cells were seeded into a 96-well plate and cultured for 24 h. S1-S6 of different concentrations (0, 0.01, 0.1, 0.5, 1, 2.5, 5, 10, 20, 40, 80, 160 μg/ml, respectively) were added and incubated for 72 h, n=6 for each concentration. The inhibition of cell proliferation was detected by CCK-8 assay, the results were calculated as IC50, as describe in Example 3.

[6] = tested on: secretion of VEGF in H1299 cell; assay: VEGF in supernatant of tumor cell H1299 culture (VEGF-ELISA); assay type: cell-based, human; settings: H1299, compound 5 μg/ml, 24 h; for inhibition at 5 µg/mL: Homo sapiens, NCI-H1299, read-out: Inhibition rate of VEGF secretion
Protocol: Assay of vascular endothelial cell growth factor (VEGF) in supernatant of tumor cell H1299 culture. The cell was seeded into a 24-well plate (n=3 for each sample). H1299 cell was treated with S1-S6 respectively and cultured for 24 h. The culture supernatants from each group were collected and operated according to the instruction of VEGF-ELISA kit (JIN MEI Corporation). The samples were added, incubated, washed and detected at 450 nm for OD values of each sample. The standard curve was obtained by using different dose of VEGF standards and the secretory volume of VEGF in the supernatant was calculated.

[7] = tested on: Bel-7402; assay: Vascular endothelial cell inhibition assay (CCK-8), Bel-7402; assay type: cell-based; settings: Homo sapiens, 72 h, CCK-8, Table 2
Protocol: as §7

[8] = tested on: KB; assay: Growth inhibition of sensitive and drug-resistant cell lines (IC50), KB; assay type: cell-based; settings: Homo sapiens; KB cells, Table 1
Protocol: as §6, §2, §3, §4, §5

[9] = tested on: MCF-7; assay: Growth inhibition of sensitive and drug-resistant cell lines (IC50), MCF-7; assay type: cell-based; settings: Homo sapiens, MCF7; MCF-7 cells
Protocol: as §6, §2, §3, §4, §5

[10] = tested on: KBv200; assay: Growth inhibition of sensitive and drug-resistant cell lines (IC50), KBv200; assay type: cell-based; settings: Homo sapiens; KBv200 drug-resistant cells
Description: as §1, §2, §3, §4, §5

[11] = tested on: SMMC-7721; assay: Growth inhibition of sensitive and drug-resistant cell lines (IC50), SMMC-7721; assay type: cell-based; settings: Homo sapiens; SMMC-7721 cells
Protocol: as §6, §2, §3, §4, §5

[12] = tested on: Bel-7402/5-Fu; assay: Growth inhibition of sensitive and drug-resistant cell lines (IC50), Bel-7402/5-Fu; assay type: cell-based; settings: Homo sapiens, Bel7402/5-FU; Bel-7402/5-Fu drug-resistant cells
Description: as §1, §2, §3, §4, §5

[13] = tested on: KB; assay: Vascular endothelial cell inhibition assay (CCK-8), KB; assay type: cell-based; settings: Homo sapiens, 72 h, CCK-8, Table 2
Protocol: as §7

[14] = tested on: HUVEC; assay: Vascular endothelial cell inhibition assay (CCK-8), HUVEC; assay type: cell-based; settings: Homo sapiens, 72 h
Protocol: as §7

[15] = tested on: MCF-7/Adr; assay: Growth inhibition of sensitive and drug-resistant cell lines (IC50), MCF-7/Adr; assay type: cell-based; settings: Homo sapiens, NCI/ADR-RES; MCF-7/Adr drug-resistant cells
Description: as §1, §2, §3, §4, §5

[16] = tested on: U87MG, H1299 and HL-60 heterograft tumors; assay: Inhibition of the growth of nude mouse heterograft tumors; assay type: in vivo, Balb/c male nude mice; settings: FIG. 9; for tumor inhibition effect: intraperitoneal, S4 25 mg/kg, S6 30 mg/kg, S1 32 mg/kg, BP 250 mg/kg, 4 weeks
Protocol: Experimental grouping: Balb/c male nude mice were used, each weighted 18-22 g, and three assays were performed. The mice were seeded with U87MG, H1299 and HL-60 respectively. The animals were divided into three groups for each experiment, one as control, one was administered with the dimeric phthalide compounds, and one was administered with monomers of phthalide compound, 6 animals for each group.
For the group which was administered with monomers of phthalide compound, we used n-butylidenephthalide (BP) (Sigma) as active ingredient for tumor suppression, the compound had the structure as follows:
Experimental Process The H1299, HL-60 or U87MG cells growing in logarithmic phase were used. […] When the tumors had gown into 0.1-0.5 cm^3 (about 7-10 days), the animals were intraperitoneal injected with the dimeric phthalide compound S4 (25 mg/kg), S6 (30 mg/kg), S1 (32 mg/kg), each 200 μl; for the group of monomers of phthalide compound, the mice were intraperitoneal injected with n-butylidenephthalide (250 mg/kg); the control group was administered with equal volume of vehicle. The animals were sacrificed after 4 weeks, and the subcutaneous tumors were separated. Photographs were taken (FIG. 9A) and the tumors were weighted (FIG. 9B).

[17] = tested on: drug-resistant cells of different mechanisms and sensitive cells; assay: Overcome drug resistance: efficacy on drug-resistant cells compared with sensitive cells; assay type: cell-based, human; settings: table 1 and FIG. 3
Protocol: as §3, §4

| Compound | IC50 [1] | IC50 [2] | IC50 [3] | IC50 [4] | IC50 [5] | Supernatant VEGF [6] | inhibition at 5 µg/mL [6] | IC50 [7] | IC50 [8] | IC50 [9] | IC50 [10] | IC50 [11] | IC50 [12] | IC50 [13] | IC50 [14] | IC50 [15] | dose needed to reach similar effects compared with the dimeric phthalide compound [16] | tumor inhibition effect [16] | efficacy on drug-resistant cells compared with sensitive cells [17] |
| --- | --- | --- | --- | --- | --- | --- | --- | --- | --- | --- | --- | --- | --- | --- | --- | --- | --- | --- | --- |
| CCC/C=C1\OC(=O)C2=C1CCC1[C@H]2C23C=CCC[C@@H]2C1(C(=O)CCC)OC3=O (single isomer, unassigned) [S3] | 26.7 ± 2.6 µg/mL (≈ 67.3 µM) | 17.4 ± 2.06 µg/mL (≈ 44 µM) | 28.1 ± 3.96 µg/mL (≈ 70.9 µM) | 19.2 ± 1.71 µg/mL (≈ 48.3 µM) | 98.7 µg/mL (≈ 249 µM) | 268.7 ± 36.13 ng/ml/10^6 cells | 28% | 44.3 µg/mL (≈ 112 µM) | 19 ± 1.91 µg/mL (≈ 48 µM) | 32.1 ± 3.21 µg/mL (≈ 81 µM) | 20.4 ± 2.6 µg/mL (≈ 51.6 µM) | 25.4 ± 2 µg/mL (≈ 64.1 µM) | 29.3 ± 2.3 µg/mL (≈ 74 µM) | 18.9 µg/mL (≈ 47.7 µM) | 5.99 µg/mL (≈ 15.1 µM) | 34 ± 3.06 µg/mL (≈ 85.7 µM) |  |  |  |
| CCC/C=C1\OC(=O)c2ccccc21 [BP, n-butylidenephthalide, reference compound] |  |  |  |  |  |  |  |  |  |  |  |  |  |  |  |  | ≥ 10 folds | some inhibition effects |  |
| CCC/C=C1\OC(=O)C2=C1CCC1C2C2(OC(=O)c3ccccc32)[C@@H]1CCC (some centres unmarked) [S2] | 38.3 ± 1.87 µg/mL (≈ 101 µM) | 18.4 ± 1.02 µg/mL (≈ 48.7 µM) | 27.9 ± 2.54 µg/mL (≈ 73.6 µM) | 20.4 ± 1.53 µg/mL (≈ 54 µM) | 83.2 µg/mL (≈ 220 µM) | 245.71 ± 34.27 ng/ml/10^6 cells | 34.2% | 25.6 µg/mL (≈ 67.7 µM) | 15.8 ± 1.25 µg/mL (≈ 41.7 µM) | 25.6 ± 2.01 µg/mL (≈ 67.7 µM) | 16.4 ± 1.98 µg/mL (≈ 43.2 µM) | 37.9 ± 2 µg/mL (≈ 100 µM) | 29.7 ± 1.99 µg/mL (≈ 78.4 µM) | 37.8 µg/mL (≈ 99.9 µM) | 4.76 µg/mL (≈ 12.6 µM) | 29.4 ± 2.8 µg/mL (≈ 77.8 µM) |  |  |  |
| CCC/C=C1\OC(=O)C2=CC3CC[C@]21C1C2=C(CC[C@@H]31)C(CCCC)OC2=O (some centres unmarked) [S5] | 35.2 ± 2.33 µg/mL (≈ 92.1 µM) | 18.4 ± 0.87 µg/mL (≈ 48.2 µM) | 30.2 ± 2.17 µg/mL (≈ 79 µM) | 18.3 ± 0.762 µg/mL (≈ 47.9 µM) | 75.8 µg/mL (≈ 198 µM) | 236.32 ± 24.02 ng/ml/10^6 cells | 36.7% | 29.7 µg/mL (≈ 77.6 µM) | 16.4 ± 2.05 µg/mL (≈ 42.9 µM) | 28.5 ± 1.91 µg/mL (≈ 74.6 µM) | 19.8 ± 1.05 µg/mL (≈ 51.8 µM) | 36 ± 3.92 µg/mL (≈ 94.2 µM) | 28.1 ± 4.02 µg/mL (≈ 73.4 µM) | 36 µg/mL (≈ 94.1 µM) | 4.04 µg/mL (≈ 10.6 µM) | 29.2 ± 2.14 µg/mL (≈ 76.4 µM) |  |  |  |
| CCC/C=C1\OC(=O)C2=C1CCC1C2C2(OC(=O)C3=C2CCC=C3)C1(C)CCC (centres unmarked) [S6] | 23 ± 2.76 µg/mL (≈ 58.2 µM) | 10.3 ± 0.597 µg/mL (≈ 26.2 µM) | 22.6 ± 3.01 µg/mL (≈ 57.3 µM) | 11.8 ± 0.995 µg/mL (≈ 29.9 µM) | 136 µg/mL (≈ 344 µM) | 237.25 ± 22.38 ng/ml/10^6 cells | 36.4% | 30 µg/mL (≈ 76.1 µM) | 13 ± 2.5 µg/mL (≈ 32.9 µM) | 22.4 ± 2.03 µg/mL (≈ 56.9 µM) | 12.2 ± 2.15 µg/mL (≈ 31 µM) | 24 ± 1.87 µg/mL (≈ 60.8 µM) | 24 ± 2.66 µg/mL (≈ 60.8 µM) | 26.3 µg/mL (≈ 66.6 µM) | 4.27 µg/mL (≈ 10.8 µM) | 24.5 ± 2.09 µg/mL (≈ 62.1 µM) |  | significant tumor inhibition effects | the best effect |
